Assay results published in patent US20020147136A1, “Compounds for targeting endothelial cells, compositions containing the same and methods for their use” (priority 2000, published 2002).
Residues, ends and D or L forms follow the SMILES beside them.

Assays:
[1] = tested on: Human aortic endothelial cells (HAEC); test: TKPPR-conjugated fluorescent bead binding to HAEC, static; format: cell-based
Protocol: Human aortic endothelial cells (HAEC) from Biowhittaker were grown as monolayers in EGM-MV medium from Biowhittaker according to the supplier's instructions.
Briefly, a frozen cryovial of cells (500,000 cells in about 1 mL) was thawed for 2-3 minutes in a 37° C. water bath and cells were seeded into a T-75 flask coated with collagen I (commercially available) containing 15 mL EGM-MV of medium pre-equilibrated with 5% CO2 atmosphere. Cells were incubated in a standard tissue culture incubator at 37° C. HAEC were subcultured for up to 3 additional passages, using the following protocol:
For binding studies and characterization, pelleted cells were diluted to a concentration of 16,560 cells per mL, and 0.5 mL was seeded into each well of an 8-well chamber slide (Collagen I-coated, Becton Dickinson) to generate a seeding density of 12,000 cells/cm^2. Cells seeded into chamber slides were used for assays after 7 to 10 days, and were not further propagated.
TKPPR (see preparation described in the Example 1) was attached to red fluorescent carboxylate-modified FluoSpheres™ (Molecular Probes), which are 2.0 μm microspheres provided at 3.9×10^9 particles/mL of distilled water. 1.0 mg TKPPR was combined with 0.5 mLof 50 mM MES buffer (2-[N-Morpholino]ethanesulfonic acid, (commercially available), pH 6.0 and 0.2 mL FluoSpheres (7.8×10^8 spheres) in a 1.5 mL Eppendorf snap top, polypropylene centrifuge tube and rotated for 30 min at room temperature (RT). Then 2.8 mg EDAC (1-ethyl-3-(3-dimethylaminopropyl)carbodiimide hydrochloride, (commercially available) in 0.025 mL MES was added and the tube was rotated for 2 h at RT. Following the addition of 0.005 mL 1 N NaOH and 5.7 mg glycine in 0.025 mL MES, the tube was rotated for 30 min more at RT. The beads were then washed by employing three cycles of centrifugation at 14,000 rpm (20,800× g) in an Eppendorf 5417R centrifuge for 15 min, discarding the resulting supernatant, and resuspending in D-PBS. Storage was at 4° C. in 0.4 mL DPBS containing 0.05% NaN3 (final bead concentration was about 1.95×10^9/mL).
Final bead concentration was 1.95×10^7/mL. […]
Bead binding and localization was assessed at 200× magnification using the same microscopy equipment as described above. […] Finally, the processed images were inverted into black on a white background using Scion Image software (version beta 3b) and the integrated density was measured with the whole field selected.
The incubation time was decreased to 15 min on an orbital shaker, and the washes (3) were carried out using D-PBS containing 0.1% Tween 20 (Sigma). […] TKPPR-bead binding was quantitated in three fields, the other bead types were quantitated in one field only. Bound beads were quantitated by manual counting.

NP-1/Fc = test: Inhibition of 125I-VEGF165 binding to NP-1/Fc; settings: 250 pM 125I-VEGF165, 4° C., 2 hours
Protocol: The ability of various compositions comprising TKPPR monomers or multimers to inhibit ^125I-VEGF binding to NP-1 was evaluated using NP-1/Fc. Competitive binding assays with microtiter plates coated with NP-1/Fc (R&D sytems) were performed using ^125I-VEGF165 as radioligand (Amersham Pharmacia Biotech Cat. No. IM274, Specific Activity: 1000-2500 Ci/mmol). […] Plates (Nunc MaxiSorp white opaque Microtiter plate [C-bottom, 437796]) were coated by incubating the wells with 75 µl of a solution containing 3 μlg/mL NP-1/Fc in D-PBS/0.1% NaAzide overnight at 4° C. after covering with sealing tape (Dynex, VWR Cat. No. 62402-931). […] All points were derived from triplicate wells, and for each set of replicates in NP-1/Fc-coated wells, a companion set in the absence of the receptor was included. For competitive binding, a series of unlabelled competitor concentrations were prepared in a 250 pM solution of ^1251-VEGF165 in assay buffer Solutions were added to 1.2 ml polypropylene tubes conforming to the microtiter format (Costar Cat. No. 29442-602), and transferred from these tubes to microtiter wells, without further dilution, using a multichannel pipettor. After addition of the appropriate solutions, microtiter plates were incubated at 4° C. for 2 hours. […] The plates were blotted dry and 25 μl deionized water and 100 μl scintillation fluid (Optiphase SuperMix, Wallac) were added to each well. Plates were agitated using a Plate Shaker (Hyperion, Cat. No. 4030-100F) for 3-5 minutes and were then counted using a Microplate Scintillation Counter (Wallac Microbeta Trilux) A set of serially diluted 125I-VEGF165 standard wells ranging from 200 to 0.04 pM were included with each experiment to aid in quantification of the amount of radiolabel bound.

For `CC(O)C(N)C(=O)NC(CCCCN)C(=O)N1CCCC1C(=O)N1CCCC1C(=O)NC(CCCNC(=N)N)C(=O)O` [TKPPR, L-Arginine, L-threonyl-L-lysyl-L-prolyl-L-prolyl] (H-TKPPR-OH; configuration not given here), the “Integrated density of bound beads” value ([1]; Experiment 1, 1.95×10^7 beads/mL, 30 min, HAEC monolayer) was 229.97 arbitrary units, the “Number of bound beads” value ([1]; Experiment 2, 4.9×10^6 beads/mL, 15 min, manual counting, TKPPR average of three fields, others one field) was 74, 103, 72 (ave. 83) and the IC50 (NP-1/Fc) was 43 µM.
